Assay results as given in the PolyMetriX glass transition set.

Row | SMILES | glass transition temperature
1 | *CC(OCC(C)C)C1(C)C(=O)OC(=O)C1(*)C (repeat unit) | 219.00 °C
2 | *CCCOCCCCOCCCN1C(=O)c2ccc(C(=O)Oc3ccc(-c4ccc(OC(=O)c5ccc6c(c5)C(=O)N(*)C6=O)cc4)cc3)cc2C1=O (repeat unit) | 70.00 °C
3 | *CC(*)c1ccc(C(C)(O)CCC)cc1 (repeat unit) | 135.00 °C
4 | *c1cccc(-c2nc3cc(-c4ccc5nc(-c6ccccc6)c(*)nc5c4)ccc3nc2-c2ccccc2)c1 (repeat unit) | 320.00 °C
5 | *CC(C)(C)C1C(=O)N(c2ccccc2)C(=O)C1* (repeat unit) | 188.00 °C
6 | *c1ccc(-c2cc(C(C)(C)C)c(Oc3ccc(N4C(=O)c5ccc(-c6ccc7c(c6)C(=O)N(*)C7=O)cc5C4=O)cc3C(F)(F)F)c(C(C)(C)C)c2)cc1 (repeat unit) | 389.00 °C
7 | *OC(=O)c1ccc(C(F)(F)C(F)(F)C(F)(F)c2ccc(C(*)=O)cc2)cc1 (repeat unit) | 98.00 °C
8 | *c1ccc(Oc2ccc(Sc3ccc(Oc4ccc(N5C(=O)c6ccc(Oc7ccc(-c8ccc(Oc9ccc%10c(c9)C(=O)N(*)C%10=O)cc8)cc7)cc6C5=O)cc4)cc3)cc2)cc1 (repeat unit) | 206.00 °C
9 | *Nc1ccc(C2(c3ccc(NC(=O)c4ccc(C(*)=O)cc4)cc3)c3ccccc3-c3ccccc32)cc1 (repeat unit) | 319.00 °C
10 | *CCN(CCCCCOc1ccc(/N=N/c2ccccc2)cc1)CCOC(=O)Nc1ccc(Cc2ccc(NC(=O)O*)cc2)cc1 (repeat unit) | 59.60 °C
11 | *C(=O)c1cccc(C(=O)c2ccc3c(c2)C(=O)N(c2cccc(N4C(=O)c5ccc(*)cc5C4=O)c2)C3=O)c1 (repeat unit) | 259.50 °C
12 | *c1ccc(-c2cc(-c3ccc(OCC(CC)CCCC)cc3)cc(-c3ccc(-c4ccc5c(c4)C(CCCCCC)(CCCCCC)c4cc(*)ccc4-5)cc3)c2-c2ccc(OCC(CC)CCCC)cc2)cc1 (repeat unit) | 110.00 °C
13 | *C(=O)Oc1ccc(-c2ccc(OC(=O)c3ccc4c(c3)C(=O)N(c3ccc(Oc5ccc(N6C(=O)c7ccc(*)cc7C6=O)cc5)cc3)C4=O)cc2)cc1 (repeat unit) | 232.00 °C
14 | *c1ccc(-c2ccc(-c3ccc([Si](*)(CCCC)CCCC)s3)s2)s1 (repeat unit) | 30.00 °C
15 | *Oc1ccc(S(=O)(=O)c2ccc(Oc3ccc(/C=C/c4ccc(*)cc4)cc3)cc2)cc1 (repeat unit) | 234.50 °C
16 | *CCC1C(=O)N(CCCCCCCCCCCCCCCCCC)C(=O)C1* (repeat unit) | 67.10 °C
17 | *CCCOCCCCOCCCN1C(=O)c2ccc(C(=O)Oc3ccc(OC(=O)c4ccc5c(c4)C(=O)N(*)C5=O)cc3)cc2C1=O (repeat unit) | 56.00 °C
18 | *CCOCCOCCOc1cccc(NC(=O)c2cccc(C(=O)Nc3cccc(O*)c3)c2)c1 (repeat unit) | 111.00 °C
19 | *CC(*)C(=O)n1c2ccccc2c2ccccc21 (repeat unit) | 50.10 °C
20 | *c1ccc(C(=O)Nc2ccc(Oc3ccc(Oc4ccc(NC(=O)c5ccc(Oc6ccc(-c7nn(*)c(=O)c8ccccc78)c7ccccc67)cc5)cc4C(F)(F)F)cc3)c(C(F)(F)F)c2)cc1 (repeat unit) | 281.50 °C
21 | *c1ccc(Cc2ccc(N3C(=O)c4ccc(Oc5ccc(Oc6ccc7c(c6)C(=O)N(*)C7=O)cc5)cc4C3=O)c(OC)c2)cc1OC (repeat unit) | 269.00 °C

Row | SMILES | glass transition temperature
22 | *C(=O)Nc1ccc(Oc2ccc(-c3ccc(Oc4ccc(NC(=O)c5ccc6c(c5)C(=O)N(c5ccc(Oc7ccc(N8C(=O)c9ccc(*)cc9C8=O)cc7)cc5)C6=O)cc4)cc3)cc2)cc1 (repeat unit) | 262.00 °C
23 | *Cc1ccccc1CN(CC)c1ccc(/C=C/c2ccc(/C=C(\C#N)C(=O)NC3CCCCC3NC(=O)/C(C#N)=C/c3ccc(/C=C/c4ccc(N(*)CC)cc4)cc3)cc2)cc1 (repeat unit) | 201.00 °C
24 | *C(=O)Nc1ccc(NC(=O)c2ccc3c(c2)C(=O)N(c2ccc(-c4sc(-c5ccc(N6C(=O)c7ccc(*)cc7C6=O)cc5)c(-c5ccccc5)c4-c4ccccc4)cc2)C3=O)cc1 (repeat unit) | 333.00 °C
25 | *c1ccc(Oc2ccc(S(=O)(=O)c3ccc(Oc4ccc(N5C(=O)C6CCC(C7CCC8C(=O)N(*)C(=O)C8C7)CC6C5=O)cc4)cc3)cc2)cc1 (repeat unit) | 256.50 °C
26 | *CCCCCCCCCCSSSS* (repeat unit) | -76.00 °C
27 | *CC(O)CN(CC(O)COc1ccc(C(C)(C)c2ccc(O*)cc2)cc1)c1ccc(/N=N/c2ccc([N+](=O)[O-])cc2)cc1 (repeat unit) | 59.00 °C
28 | *Oc1ccc(CC(NC(=O)CCc2ccc(OC(=O)CCCCCCC(*)=O)cc2)C(=O)OC)cc1 (repeat unit) | 55.50 °C
29 | *c1ccc(Sc2cc3c(cc2Sc2ccc(N4C(=O)c5ccc(Oc6ccc7c(c6)C(=O)N(*)C7=O)cc5C4=O)cc2)C(=O)N(c2ccc(CC)cc2)C3=O)cc1 (repeat unit) | 271.00 °C
30 | *CC(=O)Nc1cccc(NC(=O)COc2ccc3ccccc3c2Sc2c(O*)ccc3ccccc23)c1 (repeat unit) | 254.00 °C
31 | *Oc1ccccc1C(=O)OC(=O)c1ccccc1OC(=O)c1ccc(C(*)=O)cc1 (repeat unit) | 120.00 °C
32 | *C1C(*)C2CC1C(C(=O)OCCC1CC3CCC1C3)C2C(=O)OCCC1CC2CCC1C2 (repeat unit) | 260.00 °C
33 | *OP(=O)(Oc1ccc(C)cc1)Oc1c(C)cc(S(=O)(=O)c2cc(C)c(*)c(C)c2)cc1C (repeat unit) | 128.00 °C
34 | *CCN(CCCCCCOc1ccc(/N=N/c2ccccc2)cc1)CCOC(=O)Nc1ccc(Cc2ccc(NC(=O)O*)cc2)cc1 (repeat unit) | 44.00 °C
35 | *CC(*)(C#N)C(=O)OCCCCCCC (repeat unit) | 102.00 °C
36 | *c1ccc2c(c1)C(=O)N(c1ccc(S(=O)(=O)c3ccc(S(=O)(=O)c4ccc(S(=O)(=O)c5ccc(N6C(=O)c7ccc(C(*)(C(F)(F)F)C(F)(F)F)cc7C6=O)cc5)cc4)cc3)cc1)C2=O (repeat unit) | 327.00 °C
37 | *OC(C)(CC(*)=O)C(F)(F)F (repeat unit) | 27.00 °C
38 | *c1ccc2c(c1)C(=O)N(c1cc(N3C(=O)c4ccc(C(*)(C(F)(F)F)C(F)(F)F)cc4C3=O)c(O)cc1O)C2=O (repeat unit) | 324.00 °C
39 | *c1ccc(Oc2ccc(S(=O)(=O)c3ccc(Oc4ccc(C5(*)OC(=O)c6ccccc65)cc4)cc3)cc2)cc1 (repeat unit) | 247.00 °C
40 | *NCCCCCCNc1nc(*)nc(-c2ccccc2)n1 (repeat unit) | 95.00 °C
41 | *Oc1ccc(CC(NC(=O)Cc2ccc(OC(=O)COCC(*)=O)cc2)C(=O)OCCCCCC)cc1 (repeat unit) | 46.00 °C
42 | *c1c(C)cc(-c2cc(C)c(N3C(=O)c4ccc(Oc5c(C)cc(Cc6cc(C)c(Oc7ccc8c(c7)C(=O)N(*)C8=O)c(C)c6)cc5C)cc4C3=O)c(C)c2)cc1C (repeat unit) | 420.00 °C

Row | SMILES | glass transition temperature
43 | *CC(C)/C=C(/*)C (repeat unit) | 2.30 °C
44 | *CC(*)c1ccc(/C(C)=N/O)cc1 (repeat unit) | 134.00 °C
45 | *Oc1ccc(N(c2ccc(OCCCCCC)cc2)c2ccc(-c3ccc(N(c4ccc(*)cc4)c4ccc(OCCCCCC)cc4)cc3)cc2)cc1 (repeat unit) | 105.00 °C
46 | *CC(*)c1ccc(C(=O)OCC(C)C)cc1 (repeat unit) | 90.00 °C
47 | *CC(*)c1ccc(COCCC(F)(F)C(F)(F)C(F)(F)C(F)(F)F)cc1 (repeat unit) | 13.00 °C
48 | *CCOC(=O)C1CCC(C(=O)OCCOc2ccc(C3(c4ccc(O*)cc4)c4ccccc4-c4ccccc43)cc2)CC1 (repeat unit) | 120.1 °C
49 | *Cc1ccc(CNC(=O)CC(C)(C)CC(C)C(=O)N*)cc1 (repeat unit) | 125.00 °C
50 | *CC(*)C(=O)Oc1c(Cl)c(Cl)c(Cl)c(Cl)c1Cl (repeat unit) | 145.00 °C
51 | *Oc1ccc(S(=O)(=O)c2ccc(Oc3ccc(C(c4ccc(*)cc4)C(C)C)cc3)cc2)cc1 (repeat unit) | 200.00 °C
52 | *Oc1ccc(/N=C/C=N/c2ccc(OC(=O)NC3CC(C)(C)CC(C)(CNC(*)=O)C3)cc2)cc1 (repeat unit) | 62.00 °C
53 | *CC(*)c1ccc(C(=O)OCC)cc1 (repeat unit) | 94.00 °C
54 | *CC(*)c1cccc(N(c2ccc(C)cc2)c2ccc(C)cc2)c1 (repeat unit) | 126.50 °C
55 | *CC(*)C(=O)OCCC#N (repeat unit) | 4.00 °C
56 | *Oc1ccc(-c2ccc(NC(=O)c3cc(C(=O)Nc4ccc(-c5ccc(Oc6ccc(C(c7ccc(*)cc7)(C(F)(F)F)C(F)(F)F)cc6)c(C(F)(F)F)c5)cc4)cc(C(C)(C)C)c3)cc2)cc1C(F)(F)F (repeat unit) | 251.50 °C
57 | *Oc1ccc(C(C)(C)c2ccc(Oc3ccc(C(=O)c4ccc(Oc5ccc(C(=O)c6ccc(*)cc6)cc5)cc4)cc3)cc2)cc1 (repeat unit) | 162.00 °C
58 | *CC(C)(C)CS(=O)(=O)CC(C)(C)COC(=O)Nc1ccc(Cc2ccc(NC(=O)O*)cc2)cc1 (repeat unit) | 90.00 °C
59 | *Nc1ccc(*)cc1C (repeat unit) | -71.40 °C
60 | *CC(*)(C)C(=O)OCCCCCC(=O)Oc1ccc(OC(=O)c2ccc(OCCCCCC)cc2)cc1 (repeat unit) | 44.00 °C
61 | *c1ccc(CCc2ccccc2N2C(=O)C(=O)N(c3ccc(Cc4ccc(N5C(=O)C(=O)N(*)C5=O)cc4)cc3)C2=O)cc1 (repeat unit) | 198.00 °C
62 | *CC(*)C(=O)OCCOc1ccc(C(=O)Oc2ccc(OC(=O)c3ccc(OCCCCC)cc3)cc2)cc1 (repeat unit) | 46.00 °C
63 | *CCOCCOCCOCCOCCOc1ccc(C(=O)Nc2cc(NC(=O)c3ccc(O*)cc3)cc(-c3nc4ccccc4[nH]3)c2)cc1 (repeat unit) | 145.00 °C
